Laboratory results published in PMC9778238, “How Discoloration of Porcine Cruor Hydrolysate Allowed the Identification of New Antifungal Peptides” (Foods, 2022).
Read-outs that look alike come from different tables or passages of the source. Ends that are not written are not given here.

Tests used:
[1] = RP-UPLC-MS/MS peptide profile, retention time; assay type: physicochemical; conditions: Poroshell 120 EC-C18, water/acetonitrile with 0.1% formic acid, B 1–13% in 6 min, 35% at 25 min, 100% at 35 min, 23 °C, 500 µL/min, early elution read as high polarity, late as higher hydrophobicity
Description: RP-UPLC coupled with MS/MS Q-TOF system was used to separate, identify, and characterize the peptide population, present in the porcine cruor hydrolysates. RP-UPLC tests were operated using a 1290 Infinity II UPLC (Agilent Technologies, Santa Clara, CA, USA), following the method proposed by. This chromatography instrument was composed of a binary pump (G7120A), a multisampler (G7167B), an in-line degasser and a variable wavelength detector (VWD G7114B) adjusted to 214 nm. […] Then, solvent B ramped to 100% until 35 min and was maintained for 10 min before returning to initial conditions. The cruor hydrolysate samples (2% protein (w/v)) were filtered through 0.22 µm PVDF filter and a volume of 0.25 µL was loaded onto a Poroshell 120 EC-C18 column (2.1 × 100 mm i.d., 2.7 micron, Agilent, Santa Clara, CA, USA) at a flow rate of 500 µL/min.
The determination of the accurate mass was performed using a hybrid ion mobility quadrupole time of flight mass spectrometer (6560 high-definition mass spectrometry (IM-Q-TOF), Agilent, Santa Clara, CA, USA). Calibration was completed using an ESI-L low concentration tuning mix (G1969-85000, Agilent Technologies, Santa Clara, CA, USA). Nitrogen was selected as the drying (13.0 L/min, 150 °C) and nebulizer gas (30 psi). The voltages were set at 3500 V for the capillary, 300 V for the nozzle and 400 V for the fragmentor. Positive mode at Extended Dynamic Range, 2 Ghz, 3200 m/z was used to record signals. Data acquisition and analysis were performed using the Agilent Mass Hunter Software package (LC/MS Data Acquisition, Version B.08.00 and Qualitative Analysis for IM-MS, Version B.07.00 Service Pack 2 with BioConfirm Software and BioConfirm, Version 10.0). A false discovery rate of 1% was used for extraction of biomolecules. […] Finally, these peptides were compared with bioactive peptides already known in the literature or analyzed with a predictive antimicrobial database.

R. mucilaginosa = assay type: cell-based, Rhodotorula mucilaginosa
Experimental: (§1) The peptide synthesis was performed by Laboratoire Innodal (Lévis, QC, Canada). Fourteen peptides were synthesized by standard solid-phase peptide synthesis (SPPS) on an automated peptide synthesizer. Solubility of peptides was first tested on saline water with 0.85% NaCl. […] Each peptide was solubilized in a small volume of dimethylsulfoxide (DMSO), and water was subsequently added until a 10% (v/v) DMSO concentration was reached. The stock solution of each peptide was at a concentration of 2.5 mM. The pH of the final solution was below the isoelectric point of each peptide. […] Antifungal assays on synthesized peptides were realized using methods described below.
(§2) The antibacterial activity was tested against two indicator bacteria including Escherichia coli and Listeria ivanovii (Table 1). These two strains are Gram-negative and Gram-positive, respectively and are commonly sensitive strains. They were subcultured in Tryptic Soy Broth (TSB) two times for 18 h, at 37 °C for E. coli and 30 °C for L. ivanovii. The antifungal activity was evaluated against four filamentous molds and four yeasts (Table 1). All the strains for antifungal assays were chosen since they are the most often strains identified as spoilage microorganisms of food products, specifically in the meat industry. The 4 filamentous molds were subcultured on Potato Dextrose Agar (PDA) at 25 °C, for 7 days, 2 times. The 4 yeasts were subcultured in Potato Dextrose Broth (PDB) at 25 °C, for 48 h, 2 to 3 times (Table 1).
(§3) The minimum inhibitory concentration (MIC) of the hydrolysate that induces inhibition of the microorganism tested was determined according to Froidevaux et al.. To quantify the growth inhibition, 96-well microplate assays were performed using Mueller-Hinton broth (MH, BD-Difco, Sparks, MD, USA). Samples were micro-diluted from the stock concentration of 40 mg/mL of proteins. The inoculum was pre-diluted in MH at a concentration of 5 × 10^5 CFU/mL. Then, the microplate was incubated 24 h at 37 °C for E. coli and at 30 °C for L. ivanovii. The molds and yeasts strains were, respectively tested at 2 × 10^4 and 1 × 10^5 conidia or yeast per mL [32]. The automated cell counter was used to determine the concentration. The microplates were incubated for 48 h at 25 °C for the molds and R. mucilaginosa, and at 35 °C for the other yeast strains. The MIC was the lowest concentration that inhibited completely the microorganism growth. The growth was measured by absorbance at 595 nm (Infinite® F200 PRO, Tecan Inc., Durham, NC, USA).
(§4) Then, they were, respectively incubated for 24 h at 37 °C or 30 °C and 48 h at 25 °C. The lowest concentration that inhibited microorganism growth is the MBC or MFC.

Paecilomyces spp. = assay type: cell-based
Experimental: as §1, §2, §3, §4

[2] = synthesized peptides, stock 2.5 mM in 10% (v/v) DMSO, highest tested concentration 1.25 mM, 48 h at 25 °C, mean ± SD

Row | Substance | Retention Time [1] [min] | also measured
1 | AAFQKVVAGVANA [porcine hemoglobin fragment β 129–141] | 10.86 | –
2 | ANVSTVLTSKYR [porcine hemoglobin fragment α 130–141] | 8.45 | –
3 | CLLVTLAAHHPDDFNPS [porcine hemoglobin fragment α 104–120] | 12.90 | –
4 | DPENFRLLGNVIVVVLA [porcine hemoglobin fragment β 100–116] | 11.10 | –
5 | DQLHVDPENFRLLGNVIVVVLARRLGHDFNPNVQ [porcine hemoglobin fragment β 95–128] | 24.79 | –
6 | ERMFLGF [porcine hemoglobin fragment α 30–36] | 16.27 | –
7 | ERMFLGFPTTKTYFPHF [porcine hemoglobin fragment α 30–46] | 18.24 | –
8 | FESF [porcine hemoglobin fragment β 43–46] | 9.60 | –
9 | FESFGDLSNAD [porcine hemoglobin fragment β 43–53] | 12.20 | –
10 | FLGFPTTKTYFPHF [porcine hemoglobin fragment α 33–46] | 19.13 | –
11 | FRLLGNVIVVV | – | MFC (R. mucilaginosa; 48 h): 0.3 ± 0.0 mM; MIC (R. mucilaginosa; 48 h): 0.156 mM; MFC (Paecilomyces spp.; 48 h): 0.6 ± 0.0 mM; MIC (Paecilomyces spp.; 48 h): 0.625 mM
12 | FRLLGNVIVVVLARRLGHDFNPNVQ [porcine hemoglobin fragment β 104–128] | 21.87 | –
13 | GAEALERMFLGFPT [porcine hemoglobin fragment α 25–38] | 9.91 | –
14 | GHLDDLPGALSALSDLHAHKL | – | MFC (R. mucilaginosa; 48 h): 0.6 ± 0.0 mM; MIC (R. mucilaginosa; 48 h): 0.6 ± 0.0 mM; MFC (Paecilomyces spp.; 48 h): 1.7 ± 0.7 mM; MIC (Paecilomyces spp.; 48 h): 1.3 ± 0.0 mM
15 | GLWGKVNVDEVGGEALGRL [porcine hemoglobin fragment β 14–32] | 16.84 | –
16 | HVDPEN | – | MIC (R. mucilaginosa; [2]): not active; MIC (Paecilomyces spp.; [2]): not active
17 | HVDPENFRLLGNVIV [porcine hemoglobin fragment β 98–112] | 17.16 | –
18 | HVDPENFRLLGNVIVVVL | – | MFC (R. mucilaginosa; 48 h): 0.3 ± 0.1 mM; MIC (R. mucilaginosa; 48 h): 0.10 ± 0.05 mM; MIC (Paecilomyces spp.; 48 h): >1.3 ± 0.0 mM
19 | HVDPENFRLLGNVIVVVLARRLGHDFNPNVQ [porcine hemoglobin fragment β 98–128, synthesized] | 23.26 | –
20 | HVDPENFRLLGNVIVVVLARRLGHDFNPNVQA [porcine hemoglobin fragment β 98–129, synthesized] | 23.33 | –
21 | KLLSHCL [porcine hemoglobin fragment α 99–105] | 8.01 | –
22 | KLLSHCLL [porcine hemoglobin fragment α 99–106] | 10.93 | –
23 | KLLSHCLLVTLAAHHPD [porcine hemoglobin fragment α 99–115] | 11.10 | –
24 | LAHKYH [LAHKYH] | – | MFC (R. mucilaginosa; 48 h): 1.3 ± 0.0 mM; MIC (R. mucilaginosa; 48 h): 1.25 mM; MFC (Paecilomyces spp.; 48 h): 1.3 ± 0.0 mM; MIC (Paecilomyces spp.; 48 h): 1.25 mM

Row | Substance | Retention Time [1] [min] | also measured
25 | LANVSTVLTSKYR [porcine hemoglobin fragment α 129–141] | 10.36 | –
26 | LERMFLGF [porcine hemoglobin fragment α 29–36] | 17.60 | –
27 | LGFPTTKTYFPHF [porcine hemoglobin fragment α 34–46] | 16.46 | –
28 | LLVVYPWTQRF [porcine hemoglobin fragment β 32–42] | 19.00 | –
29 | LSDLHAHKLRVDPVNF [porcine hemoglobin fragment α 83–98] | 10.23 | –
30 | LVVYPWTQRF [porcine hemoglobin fragment β 33–42] | 16.65 | –
31 | NALAHKYH | – | MFC (R. mucilaginosa; 48 h): 0.3 ± 0.0 mM; MIC (R. mucilaginosa; 48 h): 0.3 ± 0.0 mM; MFC (Paecilomyces spp.; 48 h): 0.3 ± 0.0 mM; MIC (Paecilomyces spp.; 48 h): 0.2 ± 0.0 mM
32 | NLSHGSDQVKAHGQKVADALTKAVGHLDDLPGAL [porcine hemoglobin fragment α 47–80] | 15.89 | –
33 | PNVQAAFQKVVAGVANALA [porcine hemoglobin fragment β 125–143] | 11.10 | –
34 | PTTKTYFPHF [porcine hemoglobin fragment α 37–46] | 12.01 | –
35 | RMFLGFPTTKTYFPHF [porcine hemoglobin fragment α 31–46] | 17.99 | –
36 | SDLHAHKLRVDPVNF [porcine hemoglobin fragment α 84–98] | 9.34 | –
37 | SFGDLSNADAVMGNPKVK [porcine hemoglobin fragment β 45–62] | 12.90 | –
38 | SFSDGLKHLDNLKGTFA [porcine hemoglobin fragment β 71–87] | 12.90 | –
39 | SNADAVMGNPKVKAH [porcine hemoglobin fragment β 50–64] | 9.91 | –
40 | STVLTSKYR [porcine hemoglobin fragment α 133–141] | 6.67 | –
41 | TSKYR [known antimicrobial peptide, porcine hemoglobin fragment α 137–141] | 1.64 | –
42 | TVLTSKYR [porcine hemoglobin fragment α 134–141] | 6.54 | –
43 | VLSAADKANVKAAWGKVGGQAGAHGAEA [porcine hemoglobin fragment α 1–28] | 9.15 | –
44 | VLSAADKANVKAAWGKVGGQAGAHGAEAL [porcine hemoglobin fragment α 1–29] | 10.86 | –
45 | VLSAADKANVKAAWGKVGGQAGAHGAEALERM [porcine hemoglobin fragment α 1–32] | 12.14 | –
46 | VLTSKYR [porcine hemoglobin fragment α 135–141] | 5.97 | –
47 | VTLAAHHPDDFNPSVHASLDKF [porcine hemoglobin fragment α 107–128] | 11.37 | –
